Tested on: HBE cells
Test: Phosphorylation of MAP kinases (Western blot) in HBE cells
Format: cell-based, human
Method: The cells were seeded at 2.5×10^5−5×10^5 cells/ml and left overnight. They were washed once in media, serum starved in the morning (serum free media—4 hrs). The media was removed and replaced with PBS, then sat at 37° C. for 15 minutes and then brought to room temp for 15 minutes. Peptide was added (concentrations 0.1 μg/ml−50 μg/ml) or H2O and incubated 10 min. The PBS was very quickly removed and replaced with ice-cold radioimmunoprecipitation (RIPA) buffer with inhibitors (NaF, B-glycerophosphate, MOL, Vanadate, PMSF, Leupeptin Aprotinin). The plates were shaken on ice for 10-15 min or until the cells were lysed and the lysates collected. The procedure for THP-1 cells was slightly different; more cells (2×10^6) were used. They were serum starved overnight, and to stop the reaction 1 ml of ice-cold PBS was added then they sat on ice 5-10 min, were spun down then resuspended in RIPA. Protein concentrations were determined using a protein assay (Pierce, Rockford, Ill.). Cell lysates (20 μg of protein) were separated by SDS-PAGE and transferred to nitrocellulose filters. […] The freshly harvested cells were consistently >99% viable as assessed by their ability to exclude trypan blue. […] Protein content was analyzed and approximately 30 μg of each sample was loaded in a 12% SDS-PAGE gel. […] Phosphorylation was detected with phosphorylation-specific antibodies.

CC[C@H](C)[C@H](N)C(=O)N[C@@H](CC(C)C)C(=O)N1CCC[C@H]1C(=O)N[C@@H](Cc1c[nH]c2ccccc12)C(=O)N[C@@H](CCCCN)C(=O)N[C@@H](Cc1c[nH]c2ccccc12)C(=O)N1CCC[C@H]1C(=O)N[C@@H](Cc1c[nH]c2ccccc12)C(=O)N[C@@H](Cc1c[nH]c2ccccc12)C(=O)N1CCC[C@H]1C(=O)N[C@@H](Cc1c[nH]c2ccccc12)C(=O)N[C@@H](CCCNC(=N)N)C(=O)N[C@@H](CCCNC(=N)N)C(N)=O [SEQ ID NO: 2]
phosphorylation of p38 and ERK1/2: dose dependent phosphorylation

From patent US20070134261A1, “Effectors of innate immunity” (priority 2001, published 2007)
